Laboratory results taken from ChEMBL document CHEMBL1150575, “Microbial transformation of hypoestenone” (2001).
≈ marks a conversion by molar mass, not a printed value.

Key:
Type in all cases: functional
Cryptococcus neoformans = assay: Antimicrobial activity against Cryptococcus neoformans by microtiter-plate assay
Pseudomonas aeruginosa = assay: Antimicrobial activity against Pseudomonas aeruginosa by microtiter-plate assay
Plasmodium falciparum = assay: Antiparasitic activity against Plasmodium falciparum W2

## CC1=C2C[C@]3(C)C(=O)C[C@@H](C(C)C)[C@H]3C[C@H]3O[C@@]3(C)[C@@H]2CC1=O
Cryptococcus neoformans
  MIC: 50 µg/mL (≈ 158 µM)

## CC1=C2C[C@]3(C)C(=O)C[C@@H](C(C)C)[C@H]3C/C=C(/C)[C@@H]2CC1=O [HYPOESTENONE]
Cryptococcus neoformans
  MIC: 20 µg/mL (≈ 66.6 µM)
Pseudomonas aeruginosa
  MIC: 45 µg/mL (≈ 150 µM)
Plasmodium falciparum
  MIC: 2.8 µg/mL (≈ 9.32 µM)
